Assay results: US20070042967A1, “Proteaseome inhibitors for the treatment of herpesviridae infected individuals” (priority 2002, published 2007)
Where a SMILES comes first, the peptide text is derived from it. The star is where a group is joined. Cbz = O=C(OCc1ccccc1)*; OtBu = CC(C)(C)O*

Experiments:
[1] = system: HCMV IE1/2 enhancer/promoter; test: TNFα stimulation / basal activity of the HCMV IE1/2 enhancer/promoter, CAT reporter (pRR55) in HL-60 cells; format: cell-based, HCMV strain Ad169; details: for influence on TNFα stimulation of the IE1/2 enhancer/promoter (in words): HL-60, HCMV AD169 promoter
Procedure: As a model for undifferentiated monocyte/granulocyte progenitor cells HL-60, cells (ATCC No. CCL 240) expressing high levels of CD34+ but low levels of typical differentiation antigens like CD11a-c and CD14 on their surface were used. Furthermore, HL-60 cells have retained the ability, to differentiate into granulocytes and monocytes depending on the stimulus. HL-60 cells were grown in RPMI 1640 medium supplemented with 10% fetal calf serum (both certified endotoxin-free, Biochrome, Germany) at 37° C. in a 5% humidified atmosphere. […] The cells were grown up to 1×10^6 cells per ml. HL-60 cells were transiently transfected with the plasmid pRR55 containing the native HCMV strain Ad169 IE1/2 enhancer/promoter region between nucleotides […] and +52 relative to the transcription start site upstream of the chloramphenicol acetyl transferase (CAT) reporter gene (Fickenscher et al., 1989). Plasmid DNA was prepared using the endofree Maxi Kit (QUIAGEN, Germany or Machery & Nagel, Germany) and stored in aliquots at −20° C. Transient transfection was performed using the DEAE transfection protocol (Stein et al., 1993). Per transfection reaction 5×10^5 cells were washed once with FCS-free medium and then resuspendend in 250 μl transfection buffer containing 1×TBS (24 mM Tris-HCl, pH 7.4, 137 mM NaCl, 5 mM KCl, 0.7 mM CaCl2, 0.5 mM MgCl2, 0.6 mM Na2HPO4), 2.5 μg plasmid DNA (1 μg/μl ) and 5 mg/ml DEAE dextran (Pharmacia-Amersham, Germany). To avoid differences in transfection efficiency, cells for parallel probes were transfected in one reaction and splitted after transfection. Transfection occurred for 1 h at 37° C. After that the cells were washed once with FCS-free RPMI 1640 medium and resuspended in medium containing 10% FCS at a concentration of 5×10^5 cells/5 ml. MG-132 (Calbiochemie, Germany) was dissolved in ethanol (5 μg/μl) and stored in aliqotes at −20 ° C. MG-132 was added into the medium at time zero after transfection and 1 h before TNFα (5 ng/ml, human recombinant TNFα; PAN, Germany, stored in aliquots containing 10 μg/μl at −80° C.). The cells were harvested 48 h after transfection, washed once with PBS and resuspended in 70 μl CAT buffer 1 (0.25 M Tris/HCl, pH 7.8, 0.5 mM EDTA). After 10 min of incubation on ice, cell extracts were prepared by repeated frozen/thawing of the cells (routinely 5 times), 10 min incubation at 65 ° C. to inactivate isoenzymes. Cell debris was removed by centrifugation at 12000 rpm for 10 min in an Eppendorf centrifuge. Cell extracts were measured for their protein concentrations using the method of Bradford (Bradford, 1976) and Bradford reagent (Sigma, Germany). Equal quantities of protein were used in the CAT-assay as described by Gorman et al., 1982. 20 μl lysates were incubated with [^14C]chloramphenicol (Hartman Analytic, Germany) and acetyl-CoA (Sigma, Germany) at 37° C. Reaction was stopped by extraction with ethylacetat (Merck, Germany). The acetylated products were quantified after separation by thin-layer chromatography using a thin layer scintillator. […] In the presence of 0.1 μg/ml MG-132 reduced TNFα stimulation by 50% (FIG. 1).
The reporter gene plasmid pRR55 contains the whole HCMV IE1/2 enhancer/promoter region between nucleotides +52 and −637 with respect to the IE1 transcriptions start site, upstream of the chloramphenicol acetyltransferase (CAT) gene [Fickenscher H, Stamminger T, Riiger R & Fleckenstein B. The role of a repetetive palindrormic sequence element in the human cytomegalovirus major immediate early enhancer. J Gen Virol 1989; 70:107-123.]. The plasmid was kindly provided by T. Stamminger (Eriangen, Germany). For transient transfection of HL-60 cells we used the DEAE dextran method as described earlier [Stein J, Volk H D, Liebenthal C, Kruger D H & Prosch S. Tumor necrosis factor alpha stimulates the activity of the human cytomegalovirus major immediate early enhancer/promoter in immature monocytic cells. J Gen Virol 1993; 74:2333-2338]. […]

ICAM-1 (CD54) = test: Surface expression of ICAM-1 (CD54) on HELF by flow cytometric analysis; format: cell-based, human; details: GCV for comparison; AD169 m.o.i.=1
Procedure: Next, we wondered whether MG132 is able to reduce the immune modulatory activity of HCMV. Therefore we measured the levels of extracellular IL-6, IL-8, and RANTES in the supernatants of mock-infected and AD-169-infected HELF (m.o.i. =1) following culture in the presence or absence of increasing amounts of MG132. In parallel, surface expression of ICAM-1 (CD54) was measured by flow cytometric analysis. As expected infection of HELF with AD 169 increased secretion of IL-6, EL-8 and RANTES (data not shown) as well as surface expression of ICAM-1 over time (FIGS. 14A and B). […]
Cell culture fluids were tested for RANTES using the ELISA KIT from R&D System, Germany, following the manufacturers instructions. […] Surface CD54 amounts were analysed using a FACScalibur analyser and cellquest software (Becton Dickinson, Germany). Data were calculated as A mean fluorescence intensities of CD54 and isotype control antibodies (=specific mean fluorescence intensity, MFI).
MG132-dependent suppression of HCMV-induced ICAM-1 surface expression Uninfected and AD169-infected HELF (m.o.i.=1) were grown in the absence or presence of MG132 or GCV and harvested 24 h (A) or 48 h (B) p.i. for surface ICAM-1 measurement by flowcytometric analysis. The specific MFI of uninfected and untreated control HELF was calculated as 100%. […]

For Cbz-IE(OtBu)AL-aldehyde [PS-1], the “decrease of TNFα stimulation” value ([1]; 0.5 to 0.1 μg/ml (0.81 to 0.16 μM), HL-60) was “about 60%” and the “influence on TNFα stimulation of the IE1/2 enhancer/promoter (in words)” value [1] was “reduce TNFα stimulation in a concentration-dependent manner”.

For `Nc1nc(O)c2ncn(COC(CO)CO)c2n1` [GCV, Ganciclovir], the “influence on virus-induced ICAM-1 expression” value (ICAM-1 (CD54)) was “no influence”.

With `CC(C)C[C@H](NC(=O)OCc1ccccc1)C(=O)N[C@@H](CC(C)C)C(=O)N[C@H](C=O)Cc1ccccc1` [PS-2, Z-Leu-Leu-Phe-CHO] (Cbz-Leu-Leu-Phe-aldehyde) the “influence on TNFα stimulation of the IE1/2 enhancer/promoter (in words)” value [1] was “reduce TNFα stimulation in a concentration-dependent manner”.

“N-carbobenzoxy-L-leucinyl-L-leucinyl-L-leucinal [MG-132]” was tested, and the “influence on TNFα stimulation of the IE1/2 enhancer/promoter (in words)” value [1] was “decreased TNFα stimulation of the IE1/2 enhancer/promoter in a concentration-dependent manner”.
